Test: mn = molality of the nth substance listed, in mol/kg
Conditions: 101 kPa, Liquid; for mass density: Pycnometric method; for electrical conductivity / speed of sound / viscosity: 308.15 K; for electrical conductivity: Frequency=0.001 MHz, Alternating current cell with electrodes; for speed of sound: Frequency=2 MHz

O=[N+]([O-])[O-].O=[N+]([O-])[O-].[Mg+2] [magnesium nitrate] + CO
Conditions	mass density [kg/m3]
304.8 K, m1 = 1.259	908.91
304.9 K, m1 = 1.71	949.01
304.95 K, m1 = 0.0082	780.67
305.05 K, m1 = 0.4024	823.53
305.15 K, m1 = 0.0667	789.04
305.25 K, m1 = 0.2776	811.08
305.55 K, m1 = 0.0545	786.97
306 K, m1 = 1.875	958.63
306.6 K, m1 = 0.0082	778.26
306.7 K, m1 = 1.492	929.13
306.75 K, m1 = 1.004	879.67
306.8 K, m1 = 0.4024	821.82
306.8 K, m1 = 0.881	866.06
306.85 K, m1 = 0.0667	787.33
306.85 K, m1 = 0.1047	792.32
306.9 K, m1 = 1.259	907.07
306.95 K, m1 = 0.4555	826.52
307.1 K, m1 = 1.71	947.08
307.15 K, m1 = 0.2776	809.38
307.15 K, m1 = 0.782	863.84
307.25 K, m1 = 0.0545	785.27
307.55 K, m1 = 0.6276	843.81
308.35 K, m1 = 1.875	956.57
308.55 K, m1 = 0.0667	785.71
308.6 K, m1 = 0.4024	820.2

Conditions	electrical conductivity [S/m]	speed of sound [m/s]	viscosity [mPa·s]
m1 = 0.0082	0.1518	1075.4	0.486
m1 = 0.0545	0.4242	1082.1	0.5169
m1 = 0.0667	0.4649	1083.3	0.5321
m1 = 0.1047	0.6114	1086	0.5501
m1 = 0.2776	1.172	1106.2	0.6334
m1 = 0.4024	1.476	1116.1	0.7332
m1 = 0.4555	1.559	1122.4	0.7633
m1 = 0.6276	1.867	1139.5	0.9449
m1 = 0.782	2.089	1157.4	1.077
m1 = 0.881	2.154	1163.7	1.083
m1 = 0.9116	2.173	1165.8	1.135
m1 = 1.004	2.266	1180.7	1.233
m1 = 1.259	2.359	1200	1.694
m1 = 1.492	2.396	1227	2.044
m1 = 1.71	2.421	1247.8	2.433
m1 = 1.875	2.395	1256.6	2.765

Reference: the NIST ThermoML archive (doi:10.1021/je800463k)
